Experimental data: paper PMC3086806, “Mining a Cathepsin Inhibitor Library for New Antiparasitic Drug Leads” (PLoS Neglected Tropical Diseases, 2011)

Legend:
[1] = target: human cathepsin L; design: method as in data provided by Celera Genomics; details: historical data; ref data provided by Celera Genomics; read-out: Ki catL; cited from earlier work
[2] = target: T1, falcipain-2 (Plasmodium falciparum, UniProt Q8I6U4); test: Falcipain-2 protease inhibition assay (Z-Leu-Arg-AMC); format: biochemical
T1 construct: made in house
T1 sequence (Q8I6U4 244-484): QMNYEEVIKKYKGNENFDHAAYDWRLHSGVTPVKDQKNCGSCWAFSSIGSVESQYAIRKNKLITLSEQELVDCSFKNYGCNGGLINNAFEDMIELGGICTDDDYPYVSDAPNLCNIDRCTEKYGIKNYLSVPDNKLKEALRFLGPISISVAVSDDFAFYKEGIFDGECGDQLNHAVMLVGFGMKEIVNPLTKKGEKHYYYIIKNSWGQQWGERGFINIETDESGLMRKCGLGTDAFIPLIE
Procedure: (§1) Recombinant cruzain, rhodesain, TbCatB, falcipain-2 and falcipain-3 were expressed as described previously, [39], [40], [41], [42]. Inhibitor stock solutions were prepared in DMSO and screened at 0.1 µM for cruzain and rhodesain, 1 µM for TbCatB and 50 nM for falcipain-3 (0.5% DMSO in assay). […] Protease inhibition assays for cruzain and rhodesain were carried out in 96 well plate format as described previously. Cruzain (4 nM), rhodesain (4 nM) or TbCatB (258 nM) was incubated with test compound in 100 mM sodium acetate, pH 5.5, containing 5 mM DTT and 0.01% Triton X-100 (buffer A), for 5 min at room temperature (the higher concentration of TbCatB was required due to its lower intrinsic activity against the fluorogenic substrate). Then buffer A containing Z-Phe-Arg-AMC (Bachem) was added to enzyme-compound mixture to give 10 µM substrate in a final assay volume of 200 µL. The rate of free AMC release was measured at excitation and emission wavelengths of 355 and 460 nm, respectively, with a microtiter plate spectrofluorimeter (SpectraMax M5, Molecular Devices) for 3 min. Percentage inhibition of test compound was calculated relative to the DMSO control (0% inhibition control). IC50 values were determined with Prism 4 software (GraphPad, San Diego, CA) using sigmoidal dose-response variable slope model.
(§2) Protease inhibition assays for falcipain-2 and falcipain-3 were carried out in 96 well plate format as described previously, [43] with modification for end-point readout. Falcipain-2 (21 nM) or falcipain-3 (78 nM) was incubated with test compound for 10 min at room temperature in 200 mM sodium acetate, pH 6, 10 mM DTT and 3.6% glycerol and 0.01% Triton X-100 (buffer B). Then buffer B containing Z-Leu-Arg-AMC (Bachem) was added to the enzyme-compound mixture to give 25 µM substrate in a final assay volume of 200 µL. After 15 min, 50 µL of 5 M acetic acid was added to each well to stop the reaction. End-point fluorescence was read in a spectrofluorimeter as above. The 0% inhibition control wells contained DMSO while 100% inhibition control wells contained 50 µM E-64 (Sigma). Percentage inhibition of test compound was calculated relative to the controls and IC50 curve fitting was performed with Prism 4 software as above.

[3] = target: human cathepsin B; design: method as in data provided by Celera Genomics; details: historical data; ref data provided by Celera Genomics; read-out: Ki catB; cited from earlier work
[4] = target: T2, TbCatB (Trypanosoma brucei, UniProt Q6R7Z5); test: TbCatB protease inhibition assay (Z-Phe-Arg-AMC); format: biochemical
T2 construct: made in house
T2 sequence (Q6R7Z5 23-340): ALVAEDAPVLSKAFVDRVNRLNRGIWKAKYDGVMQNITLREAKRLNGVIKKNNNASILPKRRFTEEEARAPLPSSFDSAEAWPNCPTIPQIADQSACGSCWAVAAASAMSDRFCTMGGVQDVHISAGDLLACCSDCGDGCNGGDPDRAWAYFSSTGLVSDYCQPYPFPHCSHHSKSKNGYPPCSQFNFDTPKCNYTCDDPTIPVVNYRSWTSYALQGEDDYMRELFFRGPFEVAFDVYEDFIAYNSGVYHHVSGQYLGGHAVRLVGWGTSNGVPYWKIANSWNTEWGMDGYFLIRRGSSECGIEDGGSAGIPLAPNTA
Procedure: as §1

[5] = target: T3, falcipain-3 (Plasmodium falciparum, UniProt Q8IIL0); test: Falcipain-3 protease inhibition assay (Z-Leu-Arg-AMC); format: biochemical; details: read-out: IC50 falcipain-3
T3 construct: made in house
T3 sequence (Q8IIL0 243-492): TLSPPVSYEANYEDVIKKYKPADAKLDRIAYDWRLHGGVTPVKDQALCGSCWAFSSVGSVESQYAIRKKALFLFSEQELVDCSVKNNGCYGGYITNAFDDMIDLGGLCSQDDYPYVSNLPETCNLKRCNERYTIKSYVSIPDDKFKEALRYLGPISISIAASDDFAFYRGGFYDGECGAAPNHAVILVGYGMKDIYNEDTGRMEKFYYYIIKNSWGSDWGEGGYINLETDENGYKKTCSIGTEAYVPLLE
Procedure: as §1, §2

[6] = tested on: W2-strain P. falciparum parasites; test: P. falciparum growth inhibition assay; format: cell-based, Plasmodium falciparum; details: Plasmodium falciparum; cultured W2 strain, 48 hours; read-out: GI50 P. falc. W2
Procedure: The growth inhibition assay for P. falciparum was conducted as described previously. W2-strain P. falciparum parasites (1% parasitemia, 2% hematocrit) were cultured at 37°C in human red blood cells under the atmosphere of 3% O2, 5% CO2 balance N2 in 0.2 mL of per well in medium RPMI-1640 supplemented with 10% human serum in duplicate 96-well flat bottom culture plates in the presence of inhibitors. Tested compounds were serially diluted 1∶3 in the range 10,000 – 4.6 nM, with maximum DMSO concentration of 0.1%. Following 48 hours of incubation, the medium was removed and the cells were fixed in 2% formaldehyde in PBS. Parasite growth was evaluated by flow cytometry on a FACsort (Becton Dickinson) equipped with AMS-1 loader (Cytek Development) after staining with 1 nM DNA dye YOYO-1(Molecular Probes) in 100 mM NH4Cl, 0.8% NaCl. Parasitemias were determined from dot plots (forward scatter vs. fluorescence) using […] software (Becton Dickinson). IC50 values for growth inhibition were determined from plots of percentage control parasitemia over inhibitor concentration using GraphPad Prism software.

In the case of `CCCCC(NC(=O)C(CC(C)C)NC(=O)N1CCOCC1)C(=O)c1nc2ccccc2o1` (stereo not drawn) [Compound 19a], the Ki [1] is given as 26 nM, the IC50 [2] is given as 2.1 nM and the Ki [3] is given as 125 nM. It also gave an IC50 [4] of 1000 nM, an IC50 [5] of 8.3 nM and a GI50 [6] of 1200 nM.
In the case of `CCCCC(NC(=O)C(Cc1ccccc1)NC(=O)N1CCOCC1)C(=O)c1nc2ccccc2o1` (stereo not drawn) [Compound 19b], the Ki [1] is listed as 180 nM, the IC50 [2] is listed as 4.4 nM and the Ki [3] is listed as 42 nM. It also gave an IC50 [4] of 600 nM, an IC50 [5] of 4.9 nM and a GI50 [6] of 2900 nM.
